Source: patent US4377594A, “Derivative of 4-(N-(substituted-benzylidene)amino-methyl cyclohexane-1-carboxylic acid” (Kureha Kagaku Kogyo Kabushiki Kaisha, priority 1980, dated 1983)
Structures can show the parent of a compound that is named as a salt. Where two headings read alike, the source gives them in different places.

Legend:
female JCL-ICR mouse = assay: acute toxicity, peroral administration; conditions: mouse, in vivo
Excerpt: (§1) (3) Examination method for acute toxicity
(§2) Acute toxicity was examined by administering perorally an aqueous solution of each Specimen to female JCL-ICR mouse of 5 to 6 weeks after birth.
(§3) ^(3) Median lethal dose (LD50), that is, dose for getting 50% of
(§4) mice to death, in unit of mg per one kilogram of body weight of mouse.

[1] = acute toxicity, peroral administration; conditions: in vivo, po; peroral, aqueous solution, female JCL-ICR mouse 5 to 6 weeks
Excerpt: as §1, §2, §3, §4

[2] = tested on: Rabbit platelet rich plasma (PRP); platelet aggregation; assay: inhibitory effect on platelet aggregation (induced by sodium arachidonate); type: cell-based; conditions: rabbit PRP 300,000/μl; sodium arachidonate tested at 400 μM; preincubated at 37° C. for 5 min
Procedure: (1) Examination method for inhibitory effect on platelet aggregation
Rabbit platelet rich plasma (PRP) was used for Aggregation Tests. PRP was prepared by centrifugation of blood collected from the ear vein of Rabbit and diluted into number-concentration 300,000/μl with platelet poor plasma. Platelet aggregation was induced by Sodium Arachidonate and monitored (measured) with a four channel platelet aggregation Tracer PAT-4A (Niko Bioscience Co., Japan). Aggregation Tracer tube contaning 230 μl PRP was preincubated at 37° C. for 5 min with each Specimen.
^(1) The minimum concentration (μM) of each Specimen for inhibitin
completely (100%) the platelet aggregating effect by sodium arachidonate

[3] = tested on: Rat's polynuclear leukocyte migration; assay: inhibitory effect on polynuclear leukocyte migration (Boyden method); type: cell-based; conditions: read-out: Inhibition rate of polynuclear leukocyte migration
Procedure: (2) Examination method for inhibitory effect on polynuclear leukocyte migration
Rat's polynuclear leukocyte migration was examined by Boyden method (refer to Japanese J. Clin. Med., 27(9), 172 (1969)) as follows; a mixture of 10 parts by volume of culture filtrate of E. coli and one part by volume of serum was incubated at 37° C. for one hour and diluted into 5-times volume with physiological salt solution, and the mixture obtained was used as an attractant. After preincubating polynuclear leukocyte suspension with each specimen for 10 min, migration of polynuclear leukocytes was examined.
^(2) The average value of inhibition rate (%) of polynuclear leukocyt
migration at each concentration (μM) of each Specimen.

[4] = 1 μM, average value, preincubation 10 min, rat
[5] = 10 μM, average value, preincubation 10 min, rat
[6] = 100 μM, average value, preincubation 10 min, rat
[7] = 1000 μM, average value, preincubation 10 min, rat

SMILES	acute toxicity (in words) (female JCL-ICR mouse)	LD50 [1] [mg/kg]	Platelet aggregation ID100 (minimum concentration for inhibiting completely (100%) the platelet aggregating effect by sodium arachidonate) [2] [µM]	inhibition at 1 µM [3, 4] [%]	inhibition at 10 µM [3, 5] [%]	inhibition at 100 µM [3, 6] [%]	inhibition at 1000 µM [3, 7] [%]	inhibition at 1 µM ([3]; Rattus norvegicus) [%]	inhibition at 10 µM ([3]; Rattus norvegicus) [%]	inhibition at 100 µM ([3]; Rattus norvegicus) [%]	inhibition at 1000 µM ([3]; Rattus norvegicus) [%]
COc1cc(C=NC[C@H]2CC[C@H](C(=O)O)CC2)ccc1O [Example 9 sodium salt, trans-4-[N-(3'-methoxy-4'-hydroxybenzylidene)aminomethyl]cyclohexane-1-carboxylic acid]	low acute toxicity										
COc1ccc(C=NC[C@H]2CC[C@H](C(=O)O)CC2)cc1OC [Example 7 sodium salt, sodium salt of trans-4-[N-(3',4'-dimethoxybenzylidene)aminomethyl]cyclohexane-1-carboxylic acid]	low acute toxicity										
COc1cc(C=NC[C@H]2CC[C@H](C(=O)O)CC2)cc(OC)c1OC [Example 8 sodium salt, trans-4-[N-(3',4',5'-trimethoxybenzylidene)aminomethyl]cyclohexane-1-carboxylic acid]	low acute toxicity										
O=C(O)[C@H]1CC[C@H](CN=Cc2ccccc2O)CC1 [I]		~2000	> 1000	0	0	39	93				
COc1ccccc1C=NC[C@H]1CC[C@H](C(=O)O)CC1 [IV]		> 3000		0	0	27	94				
O=C(O)[C@H]1CC[C@H](CN=Cc2cccc(O)c2O)CC1 [II]		> 3000		0	25	66	100				
O=C(O)[C@H]1CC[C@H](CN=Cc2ccc(O)cc2O)CC1 [III]		> 3000	> 1000	0	12	42	92				
COc1ccc2c(c1)c(CC(=O)O)c(C)n2C(=O)c1ccc(Cl)cc1 [V]		30						0	0	25	79
CN1CCCN(C(c2ccccc2)c2ccc(Cl)cc2)CC1 (stereo not drawn) [VI]		350	> 1000					15	48	80	100
